Experimental data as given in ChEMBL document CHEMBL1129258, “Synthesis and structure-activity relationships of 2-pyridones: a novel series of potent DNA gyrase inhibitors as antibacterial agents” (J Med Chem, 1996).
Values after ≈ are worked out from the molar mass of the structure shown.

system: not listed separately; assay: In vitro antibacterial activity against gram-negative organism Pseudomonas aeruginosa DPHD-2862; format: functional; conditions: Pseudomonas aeruginosa; read-out: MIC

| SMILES | MIC [µg/mL] |
| --- | --- |
| Cc1c(N2CC[C@@H]([C@H](C)N)C2)c(F)cn2c(=O)c(C(=O)O)cc(C3CC3)c12 | 1.56 (≈ 4.18 µM) |
| Cc1c(N2CC[C@H](O)C2)c(F)cn2c(=O)c(C(=O)O)cc(C3CC3)c12 | 3.1 (≈ 8.95 µM) |

biological target: T1, DNA gyrase (Escherichia coli) (UniProt P0AES6+P0AES4); assay: In vitro antibacterial activity against gram-negative organism Klebsiella pneumoniae ATCC 8045; format: functional; conditions: not given

| SMILES | MIC [µg/mL] |
| --- | --- |
| Cc1c(N2CC[C@@H]([C@H](C)N)C2)c(F)cn2c(=O)c(C(=O)O)cc(C3CC3)c12 | 0.005 (≈ 0.0134 µM) |
| Cc1c(N2CC[C@H](O)C2)c(F)cn2c(=O)c(C(=O)O)cc(C3CC3)c12 | 0.01 (≈ 0.0289 µM) |

biological target: T1, DNA gyrase (Escherichia coli); assay: In vitro antibacterial against gram-negative organism Escherichia coli JUHL; format: functional; conditions: Escherichia coli K-12

| SMILES | MIC [µg/mL] |
| --- | --- |
| Cc1c(N2CC[C@@H]([C@H](C)N)C2)c(F)cn2c(=O)c(C(=O)O)cc(C3CC3)c12 | < 0.001 |
| Cc1c(N2CC[C@H](O)C2)c(F)cn2c(=O)c(C(=O)O)cc(C3CC3)c12 | 0.02 (≈ 0.0577 µM) |

biological target: T1, DNA gyrase (Escherichia coli); assay: In vitro antibacterial activity against gram-negative organism […] ATCC 13048; format: functional; conditions: Enterobacter aerogenes

| SMILES | MIC [µg/mL] |
| --- | --- |
| Cc1c(N2CC[C@@H]([C@H](C)N)C2)c(F)cn2c(=O)c(C(=O)O)cc(C3CC3)c12 | 0.01 (≈ 0.0268 µM) |
| Cc1c(N2CC[C@H](O)C2)c(F)cn2c(=O)c(C(=O)O)cc(C3CC3)c12 | 0.1 (≈ 0.289 µM) |

system: Streptococcus pneumoniae; assay: (§1) In vivo efficacy against Strep. administration; format: functional; conditions: not given

| SMILES | ED50 [mg/kg] |
| --- | --- |
| Cc1c(N2CC[C@@H]([C@H](C)N)C2)c(F)cn2c(=O)c(C(=O)O)cc(C3CC3)c12 | < 3.1 |
| Cc1c(N2CC[C@H](O)C2)c(F)cn2c(=O)c(C(=O)O)cc(C3CC3)c12 | > 10 |

system: Streptococcus pneumoniae; assay: In vivo efficacy against Strep. administered; format: functional; conditions: not given

| SMILES | ED50 [mg/kg] |
| --- | --- |
| Cc1c(N2CC[C@@H]([C@H](C)N)C2)c(F)cn2c(=O)c(C(=O)O)cc(C3CC3)c12 | < 1.3 |

biological target: T1, DNA gyrase (Escherichia coli); assay: In vivo efficacy against Escherichia coli JUHL by subcutaneous administration; format: functional, organism-based; conditions: Escherichia coli K-12

| SMILES | ED50 [mg/kg] |
| --- | --- |
| Cc1c(N2CC[C@@H]([C@H](C)N)C2)c(F)cn2c(=O)c(C(=O)O)cc(C3CC3)c12 | 0.5 |

biological target: T1, DNA gyrase (Escherichia coli); assay: not given; conditions: Escherichia coli K-12

| SMILES | CC50 [µg/mL] |
| --- | --- |
| Cc1c(N2CC[C@@H]([C@H](C)N)C2)c(F)cn2c(=O)c(C(=O)O)cc(C3CC3)c12 | 0.3 (≈ 0.803 µM) |

biological target: T2, DNA gyrase (Staphylococcus aureus) (UniProt P0A0K8+P20831); assay: In vivo efficacy against Staphylococcus aureus NCTC-10649M after subcutaneous administration; format: functional, organism-based; conditions: not given
T2 sequence (P0A0K8 2-644 limits assumed): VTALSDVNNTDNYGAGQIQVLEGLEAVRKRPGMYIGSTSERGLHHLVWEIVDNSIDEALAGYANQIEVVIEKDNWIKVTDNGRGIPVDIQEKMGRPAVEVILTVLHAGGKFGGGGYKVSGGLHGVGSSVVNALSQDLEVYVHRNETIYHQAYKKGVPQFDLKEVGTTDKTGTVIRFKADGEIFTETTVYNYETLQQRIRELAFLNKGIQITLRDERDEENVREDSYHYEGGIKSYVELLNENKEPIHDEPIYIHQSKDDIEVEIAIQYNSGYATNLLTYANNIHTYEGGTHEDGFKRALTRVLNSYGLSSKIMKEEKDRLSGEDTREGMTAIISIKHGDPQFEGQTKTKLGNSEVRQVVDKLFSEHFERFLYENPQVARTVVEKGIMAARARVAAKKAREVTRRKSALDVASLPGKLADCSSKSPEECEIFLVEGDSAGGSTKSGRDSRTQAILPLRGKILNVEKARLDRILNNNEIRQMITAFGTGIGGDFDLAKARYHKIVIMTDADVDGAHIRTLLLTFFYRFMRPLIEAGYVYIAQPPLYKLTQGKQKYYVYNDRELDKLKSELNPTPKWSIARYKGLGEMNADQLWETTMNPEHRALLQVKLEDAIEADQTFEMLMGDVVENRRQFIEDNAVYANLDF
T2 sequence (P20831 whole entry partner): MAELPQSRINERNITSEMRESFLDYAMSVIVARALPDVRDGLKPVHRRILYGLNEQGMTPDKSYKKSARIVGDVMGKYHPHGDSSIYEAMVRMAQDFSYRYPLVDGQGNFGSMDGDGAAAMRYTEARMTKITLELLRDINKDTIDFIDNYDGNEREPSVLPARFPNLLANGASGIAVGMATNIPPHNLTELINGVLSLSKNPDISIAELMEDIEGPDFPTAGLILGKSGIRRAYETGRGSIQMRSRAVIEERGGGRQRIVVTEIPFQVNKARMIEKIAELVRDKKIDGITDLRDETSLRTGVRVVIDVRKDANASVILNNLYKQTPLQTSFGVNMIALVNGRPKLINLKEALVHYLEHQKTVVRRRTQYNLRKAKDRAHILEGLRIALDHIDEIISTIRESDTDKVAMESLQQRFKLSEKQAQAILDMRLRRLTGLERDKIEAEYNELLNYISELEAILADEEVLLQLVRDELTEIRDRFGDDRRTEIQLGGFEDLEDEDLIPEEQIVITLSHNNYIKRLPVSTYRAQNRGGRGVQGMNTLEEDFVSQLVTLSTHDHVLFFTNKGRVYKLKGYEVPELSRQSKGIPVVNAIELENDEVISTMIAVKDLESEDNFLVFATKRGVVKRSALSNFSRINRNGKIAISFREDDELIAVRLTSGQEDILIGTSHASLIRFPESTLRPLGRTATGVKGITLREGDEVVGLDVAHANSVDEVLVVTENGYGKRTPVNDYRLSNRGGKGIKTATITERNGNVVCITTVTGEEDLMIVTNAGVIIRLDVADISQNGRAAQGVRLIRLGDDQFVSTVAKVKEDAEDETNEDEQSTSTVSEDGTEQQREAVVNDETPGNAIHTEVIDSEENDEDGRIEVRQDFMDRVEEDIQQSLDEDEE

| SMILES | ED50 [mg/kg] |
| --- | --- |
| Cc1c(N2CC[C@@H]([C@H](C)N)C2)c(F)cn2c(=O)c(C(=O)O)cc(C3CC3)c12 | < 0.2 |
| Cc1c(N2CC[C@H](O)C2)c(F)cn2c(=O)c(C(=O)O)cc(C3CC3)c12 | 1.5 |

biological target: T1, DNA gyrase (Escherichia coli); assay: In vitro antibacterial activity against gram-negative organism Prov. stuartii CMX-640; format: functional; conditions: Providencia stuartii

| SMILES | MIC [µg/mL] |
| --- | --- |
| Cc1c(N2CC[C@@H]([C@H](C)N)C2)c(F)cn2c(=O)c(C(=O)O)cc(C3CC3)c12 | 0.2 (≈ 0.536 µM) |
| Cc1c(N2CC[C@H](O)C2)c(F)cn2c(=O)c(C(=O)O)cc(C3CC3)c12 | 0.39 (≈ 1.13 µM) |

biological target: T1, DNA gyrase (Escherichia coli); assay: In vitro antibacterial activity against gram-positive organism Streptococcus bovis A-5169; format: functional; conditions: Streptococcus equinus

| SMILES | MIC [µg/mL] |
| --- | --- |
| Cc1c(N2CC[C@@H]([C@H](C)N)C2)c(F)cn2c(=O)c(C(=O)O)cc(C3CC3)c12 | < 0.001 |
| Cc1c(N2CC[C@H](O)C2)c(F)cn2c(=O)c(C(=O)O)cc(C3CC3)c12 | 0.1 (≈ 0.289 µM) |

biological target: T1, DNA gyrase (Escherichia coli); assay: In vivo efficacy against Escherichia coli JUHL after oral administration; format: functional, organism-based; conditions: Escherichia coli K-12

| SMILES | ED50 [mg/kg] |
| --- | --- |
| Cc1c(N2CC[C@@H]([C@H](C)N)C2)c(F)cn2c(=O)c(C(=O)O)cc(C3CC3)c12 | 3.3 |

system: Streptococcus pneumoniae; assay: as §1; format: functional; conditions: not given

| SMILES | ED50 [mg/kg] |
| --- | --- |
| Cc1c(N2CC[C@H](O)C2)c(F)cn2c(=O)c(C(=O)O)cc(C3CC3)c12 | > 2 |

biological target: T2, DNA gyrase (Staphylococcus aureus); assay: In vitro antibacterial activity against gram-positive organism Staphylococcus aureus NCTC-10649M; format: functional; conditions: not given

| SMILES | MIC [µg/mL] |
| --- | --- |
| Cc1c(N2CC[C@@H]([C@H](C)N)C2)c(F)cn2c(=O)c(C(=O)O)cc(C3CC3)c12 | < 0.001 |
| Cc1c(N2CC[C@H](O)C2)c(F)cn2c(=O)c(C(=O)O)cc(C3CC3)c12 | 0.005 (≈ 0.0144 µM) |

system: Streptococcus pyogenes; assay: In vitro antibacterial activity against gram-positive organism Streptococcus pyogenes EES61; format: functional; conditions: Streptococcus pyogenes; read-out: MIC

| SMILES | MIC [µg/mL] |
| --- | --- |
| Cc1c(N2CC[C@@H]([C@H](C)N)C2)c(F)cn2c(=O)c(C(=O)O)cc(C3CC3)c12 | < 0.001 |

system: not listed separately; assay: In vivo efficacy against Pseudomonas aeruginosa 5007 after subcutaneous administration; format: functional; conditions: Pseudomonas aeruginosa, sc; read-out: ED50

| SMILES | ED50 [mg/kg] |
| --- | --- |
| Cc1c(N2CC[C@@H]([C@H](C)N)C2)c(F)cn2c(=O)c(C(=O)O)cc(C3CC3)c12 | 1 |

biological target: T2, DNA gyrase (Staphylococcus aureus); assay: In vitro antibacterial activity against gram-positive organism Staphylococcus aureus ATCC 6538p; format: functional; conditions: not given

| SMILES | MIC [µg/mL] |
| --- | --- |
| Cc1c(N2CC[C@@H]([C@H](C)N)C2)c(F)cn2c(=O)c(C(=O)O)cc(C3CC3)c12 | < 0.001 |
| Cc1c(N2CC[C@H](O)C2)c(F)cn2c(=O)c(C(=O)O)cc(C3CC3)c12 | 0.005 (≈ 0.0144 µM) |

biological target: T1, DNA gyrase (Escherichia coli); assay: In vitro antibacterial activity against gram-positive organism Enterococcus faecium ATCC 8043; format: functional; conditions: not given

| SMILES | MIC [µg/mL] |
| --- | --- |
| Cc1c(N2CC[C@@H]([C@H](C)N)C2)c(F)cn2c(=O)c(C(=O)O)cc(C3CC3)c12 | < 0.001 |
| Cc1c(N2CC[C@H](O)C2)c(F)cn2c(=O)c(C(=O)O)cc(C3CC3)c12 | 0.05 (≈ 0.144 µM) |

system: Pseudomonas aeruginosa; assay: In vivo efficacy against Pseudomonas aeruginosa 5007 following p.o. administration.; conditions: not given

| SMILES | ED50 [mg/kg] |
| --- | --- |
| Cc1c(N2CC[C@@H]([C@H](C)N)C2)c(F)cn2c(=O)c(C(=O)O)cc(C3CC3)c12 | 13 |

system: not listed separately; assay: In vitro antibacterial activity against gram-negative organism Pseudomonas aeruginosa 5007; format: functional; conditions: Pseudomonas aeruginosa; read-out: MIC

| SMILES | MIC [µg/mL] |
| --- | --- |
| Cc1c(N2CC[C@@H]([C@H](C)N)C2)c(F)cn2c(=O)c(C(=O)O)cc(C3CC3)c12 | 0.05 (≈ 0.134 µM) |
| Cc1c(N2CC[C@H](O)C2)c(F)cn2c(=O)c(C(=O)O)cc(C3CC3)c12 | 0.39 (≈ 1.13 µM) |

biological target: T2, DNA gyrase (Staphylococcus aureus); assay: In vivo efficacy against Staphylococcus aureus NCTC-10649M after oral administration; format: functional, organism-based; conditions: not given

| SMILES | ED50 [mg/kg] |
| --- | --- |
| Cc1c(N2CC[C@@H]([C@H](C)N)C2)c(F)cn2c(=O)c(C(=O)O)cc(C3CC3)c12 | 7.2 |
| Cc1c(N2CC[C@H](O)C2)c(F)cn2c(=O)c(C(=O)O)cc(C3CC3)c12 | 5.3 |

biological target: T2, DNA gyrase (Staphylococcus aureus); assay: In vitro antibacterial activity against gram-positive organism Staphylococcus aureus 1775; format: functional; conditions: not given

| SMILES | MIC [µg/mL] |
| --- | --- |
| Cc1c(N2CC[C@@H]([C@H](C)N)C2)c(F)cn2c(=O)c(C(=O)O)cc(C3CC3)c12 | 0.05 (≈ 0.134 µM) |
| Cc1c(N2CC[C@H](O)C2)c(F)cn2c(=O)c(C(=O)O)cc(C3CC3)c12 | 0.39 (≈ 1.13 µM) |
